# Data as given in patent US20210254272A1, “TEXTILES HAVING ANTIMICROBIAL PROPERTIES” (Livinguard AG, priority 2015, published 2021).
# Test system: E. coli (ATCC 25922)
# Test: AATCC Test Method 100-2012 antibacterial activity of the treated textile, after 25 washes and 12 abrasion cycles, contact time 60 minutes
# Format: cell-based
# Conditions: for Performance Test-Log reduction of antimicrobial performance: pad process, 2 min
# Protocol: The antibacterial activity of the textile was tested in accordance with AATCC Test Method 100-2012. Prior to the test, the fabric was cut into coupons of 2×4 inches and washed separately 25 times, and exposed to 12 abrasion cycles, as per US EPA protocol 90072PA4 (described further below). The tests were made against E. coli (ATCC 25922). Contact time was 60 minutes, after inoculating with 10^8 CFU per coupon.
substance,measurement,setting,value
Silver,Performance Test-Log reduction of antimicrobial performance,"single agent 5 gm/lit, curing 180° C.",1.11 Log
same,Performance Test-Log reduction of antimicrobial performance,"single agent 10 gm/lit, curing 120° C.",0.37 Log
same,Performance Test-Log reduction of antimicrobial performance,"single agent 10 gm/lit, curing 140° C.",0.48 Log
same,Performance Test-Log reduction of antimicrobial performance,"single agent 10 gm/lit, curing 150° C.",0.58 Log
same,Performance Test-Log reduction of antimicrobial performance,"single agent 10 gm/lit, curing 160° C.",0.95 Log
same,Performance Test-Log reduction of antimicrobial performance,"single agent 10 gm/lit, curing 180° C.",2.11 Log
same,Log reduction of antimicrobial performance,"pure cotton fabric, exhaust 80° C., 60 min, dosage 0.1% o.w.f",0.55 Log
same,Log reduction of antimicrobial performance,"pure cotton fabric, exhaust 80° C., 60 min, dosage 0.2% o.w.f",1.35 Log
same,Log reduction of antimicrobial performance,"pure cotton fabric, exhaust 80° C., 60 min, dosage 0.5% o.w.f",1.67 Log
same,Log reduction of antimicrobial performance,"pure cotton fabric, exhaust 80° C., 60 min, dosage 0.8% o.w.f",1.84 Log
same,Log reduction of antimicrobial performance,"pure cotton fabric, exhaust 80° C., 60 min, dosage 1.0% o.w.f",2.87 Log
same,Log reduction of antimicrobial performance,"pure cotton, exhaust 80° C., 1% o.w.f, 60 min, curing 180° C., curing dwell time 0.5 min",0.4 Log
same,Log reduction of antimicrobial performance,"pure cotton, exhaust 80° C., 1% o.w.f, 60 min, curing 180° C., curing dwell time 1.0 min",0.6 Log
same,Log reduction of antimicrobial performance,"pure cotton, exhaust 80° C., 1% o.w.f, 60 min, curing 180° C., curing dwell time 1.5 min",1.4 Log
same,Log reduction of antimicrobial performance,"pure cotton, exhaust 80° C., 1% o.w.f, 60 min, curing 180° C., curing dwell time 2.0 min",2.9 Log
same,Log reduction of antimicrobial performance,"pure cotton, exhaust 80° C., 1% o.w.f, 60 min, curing 180° C., curing dwell time 2.5 min",2.2 Log
same,Log reduction of antimicrobial performance,"pure cotton, exhaust 80° C., 1% o.w.f, 60 min, curing 180° C., curing dwell time 3.0 min",1.2 Log
same,Log reduction of antimicrobial performance,"pure polyester fabric, exhaust 80° C., 60 min, curing 180° C., curing dwell time 0.5 min",0.5 Log
same,Log reduction of antimicrobial performance,"pure polyester fabric, exhaust 80° C., 60 min, curing 180° C., curing dwell time 1.0 min",0.9 Log
same,Log reduction of antimicrobial performance,"pure polyester fabric, exhaust 80° C., 60 min, curing 180° C., curing dwell time 1.5 min",1.4 Log
same,Log reduction of antimicrobial performance,"pure polyester fabric, exhaust 80° C., 60 min, curing 180° C., curing dwell time 2.0 min",2.68 Log
same,Log reduction of antimicrobial performance,"pure polyester fabric, exhaust 80° C., 60 min, curing 180° C., curing dwell time 2.5 min",2.21 Log
same,Log reduction of antimicrobial performance,"pure polyester fabric, exhaust 80° C., 60 min, curing 180° C., curing dwell time 3.0 min",1.2 Log
same,Log reduction of antimicrobial performance,"pure polyester fabric, exhaust 80° C., 60 min, dosage 0.1% o.w.f",0.55 Log
same,Log reduction of antimicrobial performance,"pure polyester fabric, exhaust 80° C., 60 min, dosage 0.2% o.w.f",1.43 Log
same,Log reduction of antimicrobial performance,"pure polyester fabric, exhaust 80° C., 60 min, dosage 0.5% o.w.f",1.78 Log
same,Log reduction of antimicrobial performance,"pure polyester fabric, exhaust 80° C., 60 min, dosage 0.8% o.w.f",1.83 Log
same,Log reduction of antimicrobial performance,"pure polyester fabric, exhaust 80° C., 60 min, dosage 1.0% o.w.f",2.67 Log
same,Log reduction of antimicrobial performance,"solution dosage 0.10% o.w.f, exhaust temperature 40° C., process time 60 min",0 Log
same,Log reduction of antimicrobial performance,"solution dosage 0.10% o.w.f, exhaust temperature 60° C., process time 60 min",0 Log
same,Log reduction of antimicrobial performance,"solution dosage 0.10% o.w.f, exhaust temperature 65° C., process time 60 min",0 Log
same,Log reduction of antimicrobial performance,"solution dosage 0.10% o.w.f, exhaust temperature 70° C., process time 60 min",0 Log
same,Log reduction of antimicrobial performance,"solution dosage 0.10% o.w.f, exhaust temperature 75° C., process time 60 min",0.21 Log
same,Log reduction of antimicrobial performance,"solution dosage 0.10% o.w.f, exhaust temperature 80° C., process time 60 min",0.53 Log
same,Log reduction of antimicrobial performance,"solution dosage 0.10% o.w.f, exhaust temperature 85° C., process time 60 min",0.67 Log
same,Log reduction of antimicrobial performance,"solution dosage 0.10% o.w.f, exhaust temperature 90° C., process time 60 min",0.68 Log
same,Log reduction of antimicrobial performance,"solution dosage 0.10% o.w.f, exhaust temperature 95° C., process time 60 min",0.68 Log
same,Log reduction of antimicrobial performance,"solution dosage 0.20% o.w.f, exhaust temperature 40° C., process time 60 min",0 Log
same,Log reduction of antimicrobial performance,"solution dosage 0.20% o.w.f, exhaust temperature 60° C., process time 60 min",0.11 Log
same,Log reduction of antimicrobial performance,"solution dosage 0.20% o.w.f, exhaust temperature 65° C., process time 60 min",0.12 Log
same,Log reduction of antimicrobial performance,"solution dosage 0.20% o.w.f, exhaust temperature 70° C., process time 60 min",0.17 Log
same,Log reduction of antimicrobial performance,"solution dosage 0.20% o.w.f, exhaust temperature 75° C., process time 60 min",0.87 Log
same,Log reduction of antimicrobial performance,"solution dosage 0.20% o.w.f, exhaust temperature 80° C., process time 60 min",1.32 Log
same,Log reduction of antimicrobial performance,"solution dosage 0.20% o.w.f, exhaust temperature 85° C., process time 60 min",1.45 Log
same,Log reduction of antimicrobial performance,"solution dosage 0.20% o.w.f, exhaust temperature 90° C., process time 60 min",1.46 Log
same,Log reduction of antimicrobial performance,"solution dosage 0.20% o.w.f, exhaust temperature 95° C., process time 60 min",1.46 Log
same,Log reduction of antimicrobial performance,"solution dosage 0.50% o.w.f, exhaust temperature 40° C., process time 60 min",0 Log
same,Log reduction of antimicrobial performance,"solution dosage 0.50% o.w.f, exhaust temperature 60° C., process time 60 min",0.23 Log
same,Log reduction of antimicrobial performance,"solution dosage 0.50% o.w.f, exhaust temperature 65° C., process time 60 min",0.13 Log
same,Log reduction of antimicrobial performance,"solution dosage 0.50% o.w.f, exhaust temperature 70° C., process time 60 min",0.18 Log
same,Log reduction of antimicrobial performance,"solution dosage 0.50% o.w.f, exhaust temperature 75° C., process time 60 min",1.05 Log
same,Log reduction of antimicrobial performance,"solution dosage 0.50% o.w.f, exhaust temperature 80° C., process time 60 min",1.56 Log
same,Log reduction of antimicrobial performance,"solution dosage 0.50% o.w.f, exhaust temperature 85° C., process time 60 min",1.76 Log
same,Log reduction of antimicrobial performance,"solution dosage 0.50% o.w.f, exhaust temperature 90° C., process time 60 min",1.78 Log
same,Log reduction of antimicrobial performance,"solution dosage 0.50% o.w.f, exhaust temperature 95° C., process time 60 min",1.78 Log
same,Log reduction of antimicrobial performance,"solution dosage 0.80% o.w.f, exhaust temperature 40° C., process time 60 min",0 Log
same,Log reduction of antimicrobial performance,"solution dosage 0.80% o.w.f, exhaust temperature 60° C., process time 60 min",0.36 Log
same,Log reduction of antimicrobial performance,"solution dosage 0.80% o.w.f, exhaust temperature 65° C., process time 60 min",0.37 Log
same,Log reduction of antimicrobial performance,"solution dosage 0.80% o.w.f, exhaust temperature 70° C., process time 60 min",0.42 Log
same,Log reduction of antimicrobial performance,"solution dosage 0.80% o.w.f, exhaust temperature 75° C., process time 60 min",1.13 Log
same,Log reduction of antimicrobial performance,"solution dosage 0.80% o.w.f, exhaust temperature 80° C., process time 60 min",1.84 Log
same,Log reduction of antimicrobial performance,"solution dosage 0.80% o.w.f, exhaust temperature 85° C., process time 60 min",1.94 Log
same,Log reduction of antimicrobial performance,"solution dosage 0.80% o.w.f, exhaust temperature 90° C., process time 60 min",1.95 Log
same,Log reduction of antimicrobial performance,"solution dosage 0.80% o.w.f, exhaust temperature 95° C., process time 60 min",1.95 Log
same,Log reduction of antimicrobial performance,"solution dosage 1.00% o.w.f, exhaust temperature 40° C., process time 60 min",0 Log
same,Log reduction of antimicrobial performance,"solution dosage 1.00% o.w.f, exhaust temperature 60° C., process time 60 min",0.41 Log
same,Log reduction of antimicrobial performance,"solution dosage 1.00% o.w.f, exhaust temperature 65° C., process time 60 min",0.42 Log
same,Log reduction of antimicrobial performance,"solution dosage 1.00% o.w.f, exhaust temperature 70° C., process time 60 min",0.52 Log
same,Log reduction of antimicrobial performance,"solution dosage 1.00% o.w.f, exhaust temperature 75° C., process time 60 min",1.23 Log
same,Log reduction of antimicrobial performance,"solution dosage 1.00% o.w.f, exhaust temperature 80° C., process time 60 min",2.78 Log
same,Log reduction of antimicrobial performance,"solution dosage 1.00% o.w.f, exhaust temperature 85° C., process time 60 min",2.85 Log
same,Log reduction of antimicrobial performance,"solution dosage 1.00% o.w.f, exhaust temperature 90° C., process time 60 min",2.86 Log
same,Log reduction of antimicrobial performance,"solution dosage 1.00% o.w.f, exhaust temperature 95° C., process time 60 min",2.86 Log
